PMC9653995, “New Positive TRPC6 Modulator Penetrates Blood–Brain Barrier, Eliminates Synaptic Deficiency and Restores Memory Deficit in 5xFAD Mice” (International Journal of Molecular Sciences, 2022)

Tests used:
[1] = system: Aβ42-treated hippocampal neurons; test: In vitro amyloid synaptotoxicity model: mushroom spine percentage in primary hippocampal neuronal cultures; format: cell-based, mouse; conditions: 24 h, mean ± SEM
Method: The average percentages of mushroom spines (MS%) in each experimental condition are presented as mean ± SEM (n = 20–30 neurons for each group from three batches of cultures). We observed that 24-h incubation in the presence of 1 µM and 100 nM of C20 rescues mushroom spine loss in Aβ42-treated hippocampal neurons. C20 lost its activity at a 10 nM concentration (Figure 2B, mushroom spine percentage (MS%) in the Control, 29.07 ± 1.15%; Control + C20 [1 µM], 31.32 ± 1.46%; Control + C20 [100 nM], 30.11 ± 0.86%; Control + C20 [10 nM]; […]; Aβ42, 19.82 ± 1.13%; Aβ42 + C20 [1 µM], 29.00 ± 1.94%; Aβ42 + C20 [100 nM], 27.28 ± 1.81%; Aβ42 + C20 [10 nM], 18.64 ± 1.63%; two-way ANOVA following Tukey’s multiple comparisons test, P values are indicated in the Figure).
Primary hippocampal neuronal cultures were prepared as previously described. Briefly, hippocampuses from postnatal day 0–2 FVB/NJ mice were removed and cut into small pieces in ice-cold buffer (1% 10x CMF-HBSS (Gibco, Grand Island, NY, USA; #14185), 1% Pen Strep (Gibco, #15140), 16 MM HEPES (Sigma, St Louis, MO, USA; #H3375), 10 MM NaHCO3 (Sigma, #S5761); pH = 7.2). Cell tissue was dissociated by trituration with 5 mg/mL DNase I solution (Sigma, #DN-25) after papain (Worthington, Columbus, OH, USA; #LK003176) digestion for 30 min at 37 °C. Hippocampal neurons were plated onto poly-D-lysine (Sigma, #P0899) coated 12 mm glass coverslips (Thermo Scientific, Braunschweig, Germany; #CB00120RA1) in 24-well dishes. in Neurobasal/B-27 with the addition of insulin-transferrin-sodium selenite (Sigma-Aldrich). Cells were grown in 1 mL of Neurobasal medium (Gibco, #10888) supplemented with 1% FBS (Gibco, #10500), 2% 50xB27 (Gibco, #17504), 0.05 MM L- Glutamine (Gibco, #250030). The cultures were maintained at 37 °C in a 5% CO2 incubator. Half of the medium was replaced with a new culture medium at DIV 7 and DIV 14. At DIV 14, neurons were fixed for 10 min with 4% paraformaldehyde sucrose in PBS at room temperature.
Neurons were transfected using the calcium phosphate method at DIV 7 as previously described with alterations that were described earlier. The transfection kit was obtained from Clontech (TAKARA Biotechnology, Mountain View, CA, USA; #631312).
Aβ42 peptides were purchased from AnaSpec (Anaspec, Freemont, CA, USA; #AS-20276). Stock solution [1 mg/mL] was prepared as described earlier and stored at −20 °C. Working Aβ42 solution was made immediately prior to treatment of the cells by diluting the stock concentration to 6.6 µM final Aβ peptide concentrations in Neurobasal. The working solution was incubated at +4 °C for 24 h to obtain the oligomeric conditions as described. […]

[2] = In vivo pharmacokinetics in plasma and brain after single i.p. injection; design: species or system CD-1 mice; conditions: mice, 10 mg/kg i.p.
Method: Two-month-old CD-1 mice (males) were used for pharmacokinetic studies. CD-1 mice were obtained from Charles River GmbH and housed in the laboratory of bioanalytics of the ChemRar research institute. The number of animals in the study was kept at a minimum in terms of ethical principles and regulatory requirements.
The study was carried out on 20 mice. Five animals constituted the control group, which were not injected with the C20 substance. The remaining 15 animals were divided into 5 groups of 3 animals per time point. At least 12 h before the start of the experiment, the animals were deprived of food with free access to water.
All 15 animals from the experimental groups underwent a single intraperitoneal injection of the C20 formulation at a dose of 10 mg/kg (formulation containing 10% ethanol). After 0.25, 0.5, 1, 2, and 4 h, CO2 euthanasia was performed in each group of animals in accordance with the time point. Blood plasma and brain samples were obtained.
Blood was collected by cardiopuncture in a volume of 0.2 mL into polypropylene tubes containing 20 μL of 5% EDTA. Blood plasma was separated by centrifugation at 10,000 rpm for 10 min.
Pharmacokinetic analysis was performed by a non-compartmental method using the Phoenix WinNonlin 6.3 software package (Pharsight Corporation, Mountain View, CA, USA) and in accordance with SOP-BL-AN-027 “Calculation and analysis of parameters of pharmacokinetic and toxicokinetic studies. Statistical processing of results”.
Analysis of pharmacokinetic parameters was performed using averaged pharmacokinetic curves in the plasma and brain. The main pharmacokinetic parameters were determined:
The intensity of C20 penetration into the brain was assessed in terms of tissue availability (ft):(1) ft=AUCt/AUCk, where AUCt is the area under the pharmacokinetic curve in the tissue; AUCk is the area under the pharmacokinetic curve in blood plasma.

TRPC3 = conditions: cited from earlier work

concentration in brain samples after 4 h [2]: 10 ng/g | half-life (t1/2) of elimination from plasma [2]: 31.2 min | half-life (t1/2) of excretion from the brain [2]: 44.4 min | maximum concentration in plasma ([2]; formulation with 10% ethanol): 789 ng/mL | time of maximum concentration (plasma and brain) ([2]; first sampling point): 15 min | index of tissue availability in the brain (ft) in relation to blood plasma ([2]; ft = AUCt/AUCk): 1.05
SMILES: COc1cc2c(cc1OC)C(c1cc3ccccc3oc1=O)=NC(C)(C)C2 [C20, 3-(3-,4-Dihydro-6,7-dimethoxy-3,3-dimethyl-1-isoquinolinyl)-2H-1-benzopyran-2-one]
mushroom spine percentage (MS%) ([1]; Aβ42-treated cultures + 10 nM, Aβ42 alone 19.82 ± 1.13%): 18.64 ± 1.63% | mushroom spine percentage (MS%) ([1]; Aβ42-treated cultures + 100 nM, Aβ42 alone 19.82 ± 1.13%): 27.28 ± 1.81% | mushroom spine percentage (MS%) ([1]; Aβ42-treated cultures + 1 µM, Aβ42 alone 19.82 ± 1.13%): 29.00 ± 1.94% | mushroom spine percentage (MS%) ([1]; Control cultures + 100 nM, Control 29.07 ± 1.15%): 30.11 ± 0.86% | activation of TRPC3 (TRPC3): does not activate TRPC3
